Results from patent US7803757B2, “Peptides based on the sequence of human lactoferrin and their use” (PharmaSurgics in Sweden AB, priority 1998, dated 2010).
≈ marks a conversion by molar mass, not a printed value. Bridge positions count the residues as written; N and C are the ends. Ends that are not written are not given here. Peptide text beside a SMILES is read from it.

Assays:
[1] = system: E. coli O14; assay: bactericidal activity, incubation with E. coli O14 (Example 3, exp. I and III); type: cell-based
Method: Human lactoferrin (hLF), peptide 3, and peptide 4, respectively, were incubated with two different strains of E. coli, E. coli O14 (experiment I) and O6K5 (experiment II), in diluted growth medium ( 1/100 BHI—brain heart infusion) for 2 hours. The peptides were also incubated with E. coli O14 in 0.05 mM KCl (pH 7) without any growth medium (experiment III). Different concentrations of the peptides were tested.
After the incubation, samples were taken for bacterial plating. Serial dilutions of five- and fourfold steps were used in experiments I and II, respectively, and of twofold steps in experiment III.
The concentrations of the different peptides required for killing 100% (experiments I and II) or 90% (experiment III) of the bacteria are given in table 2.

[2] = system: Candida albicans; assay: fungicidal activity against Candida albicans strains (Example 4); type: cell-based
Method: (§1) In this example the fungicidal activity of the peptides according to the invention was tested and compared to the fungicidal activity of human lactoferrin. Different concentrations of hLF, peptide 3 and peptide 4 were incubated with different strains of Candida albicans and Candida krusei during 1-2 hours at 37° C. in 0.05 mM KCl at pH 7.0 at two different occasions—experiment I and II, respectively. After incubation samples were taken for plating on Saboroud plates.

[3] = system: Candida krusei; assay: fungicidal activity against Candida krusei strains (Example 4); type: cell-based; details: Exp. I
Method: as §1

[4] = system: LPS-induced IL-6 response in a monocytic cell line (THP-1); assay: inhibition of LPS-induced IL-6 response in THP-1 cells (Example 5); type: cell-based; details: IL-6 response in THP-1 cells, agent added 30 minutes after LPS
Method: In this example an in vitro test was performed to study the anti-inflammatory activity of the peptides according to the invention. More precisely, the inhibitory effect of the peptides according to the invention on the LPS-induced IL-6 response in a monocytic cell line (THP-1) was studied and compared to the effect of human lactoferrin by use of the method described by I. Mattsby-Baltzer et al., Pediatr. Res. 40:257-262, 1996. The IL-6 response in the THP-1 cells was induced by addition of LPS. hLF, peptide 3 and peptide 4, respectively, were added 30 minutes after LPS.

[5] = system: E. coli O6K5; assay: urinary tract infection in mice, bacteria (CFU) in kidney (Example 6); type: in vivo; details: Exp II, mouse strain C3H/Tif, 500 μg per mouse orally 30 minutes after instillation, 24 hours
Method: E. coli O6K5 was instilled into the urinary bladder of mice. 30 minutes after instillation the different agents specified in table 5 were administered orally in an amount of 500 μg per mouse and 24 hours after instillation the number of bacteria (CFU) present in bladder and in kidney was determined.
The control group consisted of 10 animals in experiment I and of 23 animals in experiment II. The animals in the control groups were given tap water instead of peptide or hLF.

[6] = system: Candida albicans ATCC 64549; assay: fungicidal and growth inhibitory activity, Candida albicans ATCC 64549 (Example 8); type: cell-based; details: for Concentration of agent for 100% killing: C. albicans ATCC 64549 1·10^5/ml, 2 hours 37° C., diluted BHI; for Concentration of agent for inhibition of growth: C. albicans ATCC 64549, spectrophotometrically after 20 hours
Method: Candida albicans ATCC 64549 (1·10^5/ml) was incubated in the presence of the peptides during 2 hours at 37° C. in diluted growth medium (BHI, twofold serial dilutions starting with 50 μg/ml). The fungicidal activity was measured by culturing 5 μl from each incubation well on Saboroud agar plates.
The inhibition of growth was measured spectrophotometrically after 20 hours of incubation.

[7] = system: E. coli O14; assay: bactericidal and growth inhibitory activity, E. coli O14 (Example 9); type: cell-based; details: for Concentration of agent for 100% killing: E. coli O14, 2 hours; for Concentration of agent for inhibition of growth: E. coli O14, spectrophotometrically after 20 hours
Method: E. coli O14 was incubated as described above in the presence of the peptides during 2 hours. The bactericidal activity was measured in the same way as described above.
The inhibition of growth was measured spectrophotometrically after incubation during 20 hours.

[8] = system: C. albicans; assay: concentration for killing of 99% of C. albicans at different pH (Example 13, FIG. 2); type: cell-based; details: for concentration needed for killing of 99% of C. albicans, compared with the capped cyclic peptides (in words): FIG. 2, different pH
From the text: In this example the concentrations needed of three peptides according to the invention for killing of 99% of C. albicans at different pH was compared to a reference peptide. The peptides according to the invention were peptide 2 (linear), peptide 3 (cyclic), peptide 4 (linear), peptide 5 (cyclic) and peptide 7 (lactam bridged), all capped. The reference peptides used were an uncapped cyclic form and an uncapped linear form of a Morinaga peptide, Morinaga 24 and 25. The results are illustrated in FIG. 2.

[9] = system: C. albicans (ATCC 64549); assay: microbe, parasite or virus in culture
Method: (§2) In the examples, the minimal microbicidal concentrations (MMC) and minimal inhibitory concentrations (MIC) were determined as follows, unless otherwise specified in the examples. Bacterial or fungal strains were cultured in BHI medium over night at 37° C. A volume of the culture was transferred to a new tube with BHI and incubated for two more hours. Thereafter the cells were spun down and the pellet was suspended in BHI medium diluted 1/100 (1% BHI). The concentration of bacterial or fungal cells was spectrophotometrically determined at 650 nm. The microbial concentrations were also determined by viable counts. Peptides serially diluted in 1% BHI by twofold or tenfold steps were added in triplicate to the wells of a microtiterplate (200 μl per well). The bacterial or fungal cell solutions were added in 10 μl volumes to give a final concentration of approximately 1-5×10^5 cells per ml in the well. The microplate was incubated at 37° C. in a humid chamber for two hours. Thereafter 5 μl was taken from each well and added as a drop onto a blood agar plate and incubated over night at 37° C. The microplate was incubated for another 20 hours at 37° C. and thereafter analysed spectrophotometrically at 650 nm in a microplate reader (Emax, Molecular Devices, USA). The concentration of peptide causing a 99% reduction of the inoculum after 2 hours of incubation was defined as the MMC99%. The MIC value was defined as the concentration giving no increase in the absorbance value above the background level after 20 hours of incubation.
In this example the fungicidal activity of one of the peptides according to the invention, the peptide with SEQ. ID. NO. 7, was compared to the conventional antifungal agents flucytosine and fluconazole, and also to human lactoferrin (hLF). The antifungal agents were tested on C. albicans (ATCC 64549) in a concentration of 2×10^5 cells/ml. The tests were performed in BHI medium diluted 1/100.

[10] = system: reference strain of S. aureus; assay: bactericidal activity, reference strain of S. aureus (Example 19); type: cell-based; details: reference strain of S. aureus 5.0×10^5 per ml, 2 hours at 37° C., lowest concentration tested 6.25 μg/ml
Method: In this example the bactericidal activity of three of the peptides according to the invention was studied in a test with a reference strain of S. aureus. A bacterial solution with a concentration of 5.0×10^5 S. aureus bacterial per ml was used. The concentration of each peptide needed to kill 99% of the bacteria (MMC99%) was determined after 2 hours of incubation at 37° C. The lowest concentration tested was 6.25 μg/ml.

[11] = system: E. coli O6K5; assay: microbicidal activity MMC99%, E. coli O6K5 (Example 28); type: cell-based; details: E. coli O6K5 (Table 24)
Method: as §2
(§3) In this example the microbicidal activity of eight of the peptides according to the invention was studied, and tested against E. coli O6K5 and C. albicans.
(§4) The concentration of each peptide needed to kill 99% of the microorganisms (MMC99%) was determined.

[12] = system: C. albicans; assay: microbicidal activity MMC99%, C. albicans (Example 28); type: cell-based; details: C. albicans (Table 24)
Method: as §2, §3, §4

In the case of “Peptide 3: cyclic form of SEQ. ID. NO. 2, disulphide bridge between the two cysteines in positions 5 and 22 (Ac-EATKCFQWQRNMRKVRGPPVSCIKR; disulfide 5-22)”, the “Concentration of agent for 100%/90% killing” value ([1]; Exp. I: 100% killing, E. coli O14, 1/100 BHI, 2 hours) is reported as 4.4 µg/mL, the “Concentration of agent for 100%/90% killing” value ([1]; Exp. III: 90% killing, E. coli O14, 0.05 mM KCl (pH 7) without growth medium) is reported as 12.5 µg/mL and the “ratio hLF/pep. (concentration for 99% killing)” value ([2]; Exp. I, C. albicans ATCC 64549) is reported as >83. For the same compound, the “Concentration of agent for 99% killing” value ([2]; Exp. I, C. albicans ATCC 64549, 0.05 mM KCl pH 7.0, 1-2 hours 37° C.) was 0.6 µg/mL, the “ratio hLF/pep. (concentration for 99% killing)” value ([2]; Exp. I, C. albicans CCUG 90028) was >83 and the “Concentration of agent for 99% killing” value ([2]; Exp. I, C. albicans CCUG 90028, 0.05 mM KCl pH 7.0) was 0.6 µg/mL. The “ratio hLF/pep. (concentration for 99% killing)” value ([2]; Exp. II, C. albicans ATCC 64549) was >133, the “Concentration of agent for 99% killing” value ([2]; Exp. II, C. albicans ATCC 64549, 0.05 mM KCl pH 7.0) was 1.5 µg/mL and the “ratio hLF/pep. (concentration for 99% killing)” value ([2]; Exp. II, C. albicans CCUG 599) was >133. The “Concentration of agent for 99% killing” value ([2]; Exp. II, C. albicans CCUG 599, 0.05 mM KCl pH 7.0) was 1.5 µg/mL, the “ratio hLF/pep. (concentration for 99% killing)” value ([2]; Exp. II, C. albicans CCUG 1759) was >133 and the “Concentration of agent for 99% killing” value ([2]; Exp. II, C. albicans CCUG 1759, 0.05 mM KCl pH 7.0) was 1.5 µg/mL. For the same compound, the “ratio hLF/pep. (concentration for 99% killing)” value ([3]; C. krusei CCUG 969) was 20, the “Concentration of agent for 99% killing” value ([3]; C. krusei CCUG 969, 0.05 mM KCl pH 7.0) was 1.25 µg/mL and the “ratio hLF/pep. (concentration for 99% killing)” value ([3]; C. krusei CCUG 35849) was 21. The “Concentration of agent for 99% killing” value ([3]; C. krusei CCUG 35849, 0.05 mM KCl pH 7.0) was 0.6 µg/mL, the “% inhibition of LPS response” value [4] was 17% and the “Statistical comparison of treatment group with control group of the number of bacteria, CFU, present in kidney (p, Mann-Whitney)” value [5] was “p = 0.0574”. For the same compound, the “Concentration of agent for 100% killing” value [6] was 6.2 µg/mL, the “Concentration of agent for inhibition of growth” value [6] was 6.2 µg/mL and the “Concentration of agent for 100% killing” value [7] was 12.5 µg/mL. For the same compound, the “Concentration of agent for inhibition of growth” value [7] was 3.1 µg/mL and the “concentration needed for killing of 99% of C. albicans, compared with the capped cyclic peptides (in words)” value [8] was “better effects than the capped cyclic peptides”.

In the case of `CSCC[C@H](NC(=O)[C@@H]1CC(=O)NCCCC[C@H](NC(=O)[C@H](Cc2ccccc2)NC(=O)[C@H](C)NC(=O)[C@H](CCCCN)NC(=O)[C@@H](NC(C)=O)[C@@H](C)O)C(=O)N[C@@H](Cc2c[nH]c3ccccc23)C(=O)N[C@@H](CCC(N)=O)C(=O)N[C@@H](CCCNC(=N)N)C(=O)N1)C(=O)N[C@@H](CCCNC(=N)N)C(=O)N[C@@H](CCCCN)C(=O)N[C@H](C(=O)N[C@@H](CCCNC(=N)N)C(N)=O)C(C)C` [Peptide 7] (Ac-TKAFKWQRDMRKVR-NH2; lactam 5-9), the “Concentration of agent for 100% killing” value [6] is reported as 3.1 µg/mL, the “Concentration of agent for inhibition of growth” value [6] is reported as 1.5 µg/mL and the “Concentration of agent for 100% killing” value [7] is reported as 12.5 µg/mL. For the same compound, the “Concentration of agent for inhibition of growth” value [7] was “≦1.5 μg/ml”, the “concentration needed for killing of 99% of C. albicans, ranking over all pH (in words)” value ([8]; FIG. 2, all different pH) was “most effective peptide at all different pH” and the “concentration needed for killing of 99% of C. albicans, compared with the capped cyclic peptides (in words)” value [8] was “better effects than the capped cyclic peptides”. The MIC ([9]; ATCC64549) was 6.2 µg/mL (≈ 3.31 µM), the MMC99% ([9]; C. albicans ATCC 64549, 2×10^5 cells/ml, BHI diluted 1/100) was 6.2 µg/mL and the MMC99% [10] was “≦6.25 μg/ml”. The MMC99% [11] was >20 and the MMC99% [12] was 5.

In the case of “SEQ. ID. NO. 98: 14 amino acids, modified positions 18-31 of human lactoferrin; sequence only in sequence listing (TKKFQWQRNMRKVR)”, the MMC99% [10] is reported as “≦6.25 μg/ml”.

“SEQ. ID. NO. 36: second embodiment, sequence from a position 13-25 to position 31 of human lactoferrin; sequence only in sequence listing (TKCFQWQRNMRKVR; ends and bridges not checked)” was tested, and the MMC99% [10] was “≦6.25 μg/ml”.
